± gives the standard deviation.
Legend:
[1] = chemical recovery from spiked human plasma; higher = better extraction; conditions: pooled human plasma
[2] = chemical recovery into PDMS from spiked human plasma; higher = better extraction; conditions: pooled human plasma, extraction method: PES with PDMS
[3] = chemical recovery by SPE of plasma after PDMS sampling; higher = better extraction; conditions: pooled human plasma, extraction method: HLB SPE of plasma after PES
[4] = extraction method: SPE only (HLB 96-well)
[5] = extraction method: SPE only (HLB 96-well), PES comparison experiment
[6] = extraction method: PES+SPE (3 d PDMS equilibration then HLB SPE)
[7] = extraction method: solvent precipitation (ACN + hexane)
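Wherever chemical recovery by SPE of plasma after PDMS sampling is given: over 400 spiked chemicals quantified by LC-HRMS or GC-HRMS via internal standard calibration, recovery relative to spike mix added to unspiked plasma extract to correct matrix effects.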

SMILES | chemical recovery [1, 4] [%] | chemical recovery into PDMS ([2]; equilibration time (d): 1) [%] | chemical recovery into PDMS ([2]; equilibration time (d): 6) [%] | chemical recovery by SPE of plasma ([3]; equilibration time (d): 3) [%] | chemical recovery by SPE of plasma ([3]; equilibration time (d): 6) [%] | chemical recovery [1, 5] [%] | chemical recovery into PDMS ([2]; equilibration time (d): 3) [%] | chemical recovery by SPE of plasma ([3]; equilibration time (d): 1) [%] | chemical recovery [1, 6] [%] | chemical recovery [1, 7] [%]
c1ccc(Cc2ccccc2)cc1 [Diphenylmethane] | 20.4 ± 5.3 | 33.8 ± 1.2 | 40.4 ± 12 | 10.1 ± 5.8 | 5.98 ± 9.4 | – | – | – | – | –
CCCCC(=O)O[C@]1(C(=O)CO)[C@@H](C)C[C@H]2[C@@H]3CCC4=CC(=O)C=C[C@]4(C)[C@@]3(F)[C@@H](O)C[C@@]21C [Betamethasone-17-valerate] | – | 12.9 ± 1.3 | 20.1 ± 1.2 | 26.8 ± 4.2 | 19.1 ± 4.2 | 41.7 ± 7.8 | 18.8 ± 1.3 | – | – | –
CN(C)c1ccc(C(=O)c2ccc(N(C)C)cc2)cc1 [Michler's ketone] | 34.4 ± 1.9 | 17.2 ± 9.7 | 16.7 ± 4.2 | 1.1 ± 0.12 | 0.502 ± 0.091 | – | 15.5 ± 10 | 1.38 ± 0.41 | – | –
CCC(C)OC(=O)N1CCCCC1CCO (stereo unspecified) [Icaridin] | 45 ± 5.5 | 27.3 ± 1.6 | 35.5 ± 13 | 2.67 ± 0.36 | 1.58 ± 0.1 | 43.2 ± 8.4 | 31.3 ± 3.8 | 2.46 ± 0.24 | – | –
NC(=O)N1c2ccccc2C=Cc2cc(O)ccc21 [2-Hydroxycarbamazepine] | 44.7 ± 3.9 | 0.215 ± 0.2 | 0.788 ± 0.13 | 55.6 ± 6.7 | 51.7 ± 11 | 51.6 ± 4.5 | 0.668 ± 0.2 | 57.7 ± 11 | 48.1 ± 3.7 | 68.2 ± 1.6
CCCCCCCCCCCCCC[N+](C)(C)[O-] [N,N-Dimethyltetradecylamine-N-oxide] | 71.5 ± 26 | 0.599 ± 0.55 | 1.01 ± 0.26 | 12.5 ± 4.9 | 8.54 ± 5.7 | 42.7 ± 8.4 | 1.2 ± 0.35 | 15.7 ± 3.1 | – | –
CC(C)Nc1nc(N)nc(Cl)n1 [Desethylatrazine] | 45.4 ± 3.1 | 11.2 ± 0.61 | 18.5 ± 2.4 | 26.3 ± 3.2 | 19 ± 2.4 | 51 ± 8.1 | 16.9 ± 1.5 | 30.4 ± 3.7 | 61.1 ± 5.3 | 45 ± 15
NC(=O)Nc1ccc(Cl)c(Cl)c1 [3,4-Dichlorophenylurea] | 43.9 ± 3.2 | 0.856 ± 1.5 | 5.93 ± 0.81 | 40.9 ± 3 | 36.5 ± 1.1 | 49.3 ± 6.2 | 4.96 ± 0.6 | 40.1 ± 4.3 | 56.4 ± 2.7 | 71.8 ± 3.8
CN(C)CCOC(c1ccccc1)c1ccccc1 [Diphenhydramine] | 44.7 ± 3 | 0.00464 ± 0.0041 | – | 0.464 ± 0.19 | 0.236 ± 0.039 | 50.3 ± 5.5 | 0.0114 ± 0.013 | 0.353 ± 0.014 | 0.391 ± 0.13 | 52.4 ± 4.6
CC12CC3CC(C)(C1)CC(N)(C3)C2 [Memantine] | 46.6 ± 1.4 | 3.61 ± 1.9 | 3.08 ± 2.4 | 7.03 ± 1.2 | 5.53 ± 0.96 | 45.1 ± 6.8 | 4.46 ± 2.7 | 6.36 ± 0.42 | 14.8 ± 4.7 | 47.1 ± 4.5
CN1CCN(C)C1=O [1,3-Dimethyl-2-imidazolidinone] | 7.04 ± 5.9 | 3.18 ± 2.2 | 3.27 ± 3.2 | 4.29 ± 3.7 | 8.78 ± 4.2 | 13.6 ± 8.1 | 2.57 ± 3 | 4.06 ± 4.7 | – | –
c1ccc2c(c1)-c1cccc3cccc-2c13 [Fluoranthene] | 6.27 ± 1.4 | – | – | – | 3.75 ± 6.5 | – | 106 ± 24 | – | 79.1 ± 25 | 69 ± 3.7
CC[C@H](C)[C@H]1O[C@]2(C=C[C@@H]1C)C[C@@H]1C[C@@H](C/C=C(\C)[C@@H](O[C@H]3C[C@H](OC)[C@@H](O[C@H]4C[C@H](OC)[C@@H](NC)[C@H](C)O4)[C@H](C)O3)[C@@H](C)/C=C/C=C3\CO[C@@H]4[C@H](O)C(C)=C[C@@H](C(=O)O1)[C@]34O)O2 [Emamectin B1a] | – | 0.154 ± 0.044 | 0.0633 ± 0.056 | 9.04 ± 3 | 8.2 ± 4.6 | 29.7 ± 9.1 | 0.139 ± 0.047 | 9.54 ± 2.3 | – | 69 ± 6.4
Clc1cc(Cl)c(-c2cc(Cl)c(Cl)cc2Cl)cc1Cl [PCB153] | 1.64 ± 0.63 | 55.1 ± 6.8 | 82.2 ± 2.6 | 2.08 ± 0.28 | 1.44 ± 0.58 | 10.3 ± 2.5 | 86.4 ± 3.6 | 4.72 ± 3 | 62.9 ± 9 | 77.6 ± 3.5
COCN(COC)c1nc(N(COC)COC)nc(N(COC)COC)n1 [Hexa(methoxymethyl)melamine] | – | 39.4 ± 2.9 | 41.9 ± 5.7 | 3.37 ± 3 | 0.745 ± 1 | 7.63 ± 2.7 | 45.8 ± 2.6 | 7.64 ± 6.8 | 38.3 ± 8.8 | 72.5 ± 2.8
Cc1cc(Cc2ccc(N)c(C)c2)ccc1N [4,4'-Methylene-bis(2-methyl aniline)] | 30.3 ± 9.8 | 0.0153 ± 0.026 | 0.0106 ± 0.018 | 4.74 ± 0.39 | 2.61 ± 0.21 | 24.5 ± 4 | 0.00421 ± 0.0073 | 4.29 ± 0.41 | 1.31 ± 0.94 | 65 ± 9.2
Cc1nc2n(c(=O)c1CCN1CCC(c3noc4cc(F)ccc34)CC1)CCCC2 [Risperidone] | – | 0.00139 ± 0.0024 | – | 3.9 ± 0.9 | 2.32 ± 0.59 | – | 0.000765 ± 0.0018 | 4.71 ± 0.66 | – | 73.2 ± 3.6
O=c1ccc2ccccc2[nH]1 [2-Hydroxyquinoline] | 43 ± 3.2 | 10.9 ± 0.65 | 17.1 ± 2.4 | 30.9 ± 3.2 | 24 ± 2.1 | 52.9 ± 8.4 | 15.6 ± 2 | 36.8 ± 5.3 | 57.1 ± 5.5 | 78.2 ± 3.6
CCCCC(C#N)(Cn1cncn1)c1ccc(Cl)cc1 (stereo unspecified) [Myclobutanil] | – | 38.4 ± 1.9 | 41.6 ± 0.64 | 1.32 ± 0.3 | – | 48.5 ± 8.4 | 42.1 ± 3.6 | 1.71 ± 0.26 | – | 79.3 ± 2.2
CN(Cc1nc2c(N)nc(N)nc2nc1O)c1ccc(C(=O)N[C@@H](CCC(=O)O)C(=O)O)cc1 [7-Hydroxymethotrexate] | – | – | 0.0138 ± 0.079 | 45.7 ± 5.5 | 40.3 ± 0.48 | 37.4 ± 4.5 | – | 38.5 ± 7.5 | – | –
Nc1cccc2ccccc12 [1-Naphthylamine] | 16.7 ± 8.8 | – | 0.338 ± 0.048 | 12.3 ± 2.6 | 6.22 ± 5.4 | 22 ± 3 | 0.33 ± 0.13 | 11.2 ± 0.88 | 4.07 ± 2.1 | –
c1ccc2c(c1)-c1cccc3c1c-2cc1ccccc13 [Benzo(b)fluoranthene] | 0.807 ± 0.61 | – | 93.6 ± 18 | 3.78 ± 9.3 | – | – | 93.1 ± 4.8 | – | – | 36 ± 1.5
Cn1ncc(N)c(Cl)c1=O [Methyldesphenylchloridazon] | – | 1.07 ± 0.26 | 1.24 ± 1.1 | 21.3 ± 7.1 | 25 ± 8.3 | 35.8 ± 1.2 | 1.44 ± 0.31 | 24.3 ± 8.3 | – | –
c1ccc2c(c1)[nH]c1cnccc12 [Norharmane] | 39.6 ± 7.7 | 24.8 ± 1.2 | 29 ± 1.6 | 2.75 ± 0.47 | 1.79 ± 0.061 | 48 ± 6.7 | 28.3 ± 0.84 | 3.67 ± 0.43 | 25.1 ± 5.9 | 77.7 ± 5.3
O=[N+]([O-])c1cc[n+]([O-])c2ccccc12 [4-Nitroquinoline-1-oxide] | – | 14.2 ± 0.49 | 17 ± 0.8 | 18.4 ± 2.5 | 13.5 ± 1.6 | 42.3 ± 8.4 | 14.7 ± 1.4 | 15.1 ± 2.7 | – | –
C[C@H]1C[C@H]2[C@@H]3CCC4=CC(=O)C=C[C@]4(C)[C@@]3(F)[C@@H](O)C[C@]2(C)[C@@]1(O)C(=O)CCl [Clobetasol] | – | 1.52 ± 0.65 | 4.86 ± 0.99 | 53.2 ± 3.3 | – | 49 ± 7.5 | 4.53 ± 1.1 | – | – | –
CN(C)c1nc(=O)n(C2CCCCC2)c(=O)n1C [Hexazinone] | 45.4 ± 3.4 | 36.1 ± 1.9 | 44.5 ± 2.9 | – | 22.5 ± 4.4 | 48.5 ± 4.3 | 42.2 ± 4.5 | 38.9 ± 6.6 | 51.5 ± 4.8 | –
